Test results reported in ChEMBL document CHEMBL1201862, “PubChem BioAssay data set” (2004).
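Results reflect a 48-hour exposure of cells in 96-well plates to compound at five concentrations. Abbreviation: GI50, concentration required for 50% inhibition of growth.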 Activity calls are given as the source filed them. Cut-off read from the data, not from the text of the source: active = GI50 up to about 1.1 µM and inactive = higher.

What was measured:
Test in all cases: NCI tumour cell line growth inhibition, 48 h
[1] = system: 786-0
[2] = system: A498
[3] = system: HOP-62
[4] = system: HT-29
[5] = system: LOX IMVI
[6] = system: MDA-MB-231
[7] = system: MDA-N
[8] = system: MOLT-4
[9] = system: Malme-3M
[10] = system: NCI-H23
[11] = system: OVCAR-3
[12] = system: RXF 393
[13] = system: SF-295
[14] = system: SK-MEL-28
[15] = system: SK-MEL-5
[16] = system: SNB-75
[17] = system: SW-620
[18] = system: UACC-257
[19] = system: UO-31

Measured: GI50

CC(C)C(=O)Oc1cc2c(=O)oc3c(OC(=O)C(C)C)c(OC(=O)C(C)C)cc4c(=O)oc(c1OC(=O)C(C)C)c2c34
inactive: [1] > 100 µM | [2] > 100 µM | [3] > 100 µM | [4] > 100 µM | [5] > 100 µM | [6] > 100 µM | [7] > 100 µM | [8] > 100 µM | [9] > 100 µM | [10] > 100 µM | [11] > 100 µM | [12] > 100 µM | [13] > 100 µM | [14] > 100 µM | [15] > 100 µM | [16] > 100 µM | [17] > 100 µM | [18] > 100 µM | [19] > 100 µM

CC(=O)O[C@H]1C[C@H]2[C@@H](OC(C)=O)/C=C3\C[C@](C)(C(=O)[C@H](O)C(=C1C)C2(C)C)[C@@H](O)C[C@@H]3OC(=O)[C@H](O)[C@H](c1ccccc1)N(C)C
inactive: [1] > 100 µM | [2] > 100 µM | [3] > 100 µM | [5] > 100 µM | [6] > 100 µM | [7] > 100 µM | [8] > 100 µM | [9] > 100 µM | [10] > 100 µM | [11] > 100 µM | [12] > 100 µM | [13] > 100 µM | [14] > 100 µM | [15] > 100 µM | [16] > 100 µM | [17] > 100 µM | [18] > 100 µM | [19] > 100 µM

CNC(=O)Nc1ccccc1
inactive: [1] > 100 µM | [2] > 100 µM | [3] > 100 µM | [4] > 100 µM | [5] > 100 µM | [6] > 100 µM | [7] > 100 µM | [8] > 100 µM | [9] > 100 µM | [10] > 100 µM | [11] > 100 µM | [12] > 100 µM | [13] > 100 µM | [14] > 100 µM | [15] > 100 µM | [16] > 74.6 µM | [17] > 100 µM | [18] > 100 µM | [19] > 100 µM

CCOC(=O)CO/N=C\C1=CC(=O)C2CC1C2(C)C (stereo unspecified)
inactive: [1] > 100 µM | [2] > 100 µM | [4] > 100 µM | [5] > 100 µM | [6] > 100 µM | [7] > 100 µM | [8] > 100 µM | [9] > 100 µM | [10] > 100 µM | [11] > 100 µM | [12] > 100 µM | [13] > 100 µM | [14] > 100 µM | [15] > 100 µM | [16] 30.1 µM | [17] > 100 µM | [18] > 100 µM | [19] > 100 µM

COC(=O)[C@@H]1c2c(oc3cc(CO)cc(O)c3c2=O)C=C[C@H]1O
inactive: [1] 2.45 µM | [2] 7.26 µM | [3] 17.9 µM | [4] 3.39 µM | [5] 3.32 µM | [6] 14.1 µM | [7] 4.59 µM | [8] 4.52 µM | [9] 1.74 µM | [10] 19 µM | [11] 8.02 µM | [12] 2.8 µM | [13] 18.4 µM | [14] 4.16 µM | [15] 5.73 µM | [16] 17.9 µM | [17] 3.11 µM | [18] 8.85 µM | [19] 3.78 µM

O=c1[nH]c2cc(C(F)(F)F)ccc2nc1CBr
inactive: [1] 6.62 µM | [2] 18.4 µM | [3] 8.05 µM | [4] 11.4 µM | [5] 1.82 µM | [6] 13.5 µM | [7] 12 µM | [8] 1.56 µM | [9] 14 µM | [10] 15.4 µM | [11] 9.77 µM | [12] 12.4 µM | [13] 14.9 µM | [14] 15.1 µM | [15] 9.59 µM | [16] 16.6 µM | [17] 9.59 µM | [18] 14.7 µM | [19] 3.4 µM

O[C@H]1[C@H]2[C@H](O)C[C@H](CCOCc3ccccc3)CN2C[C@H]1O
inactive: [1] > 100 µM | [2] > 100 µM | [4] > 100 µM | [5] > 100 µM | [6] > 100 µM | [7] > 100 µM | [8] > 100 µM | [9] > 100 µM | [10] > 100 µM | [11] > 100 µM | [12] > 100 µM | [13] > 100 µM | [14] > 100 µM | [15] > 100 µM | [16] 45.4 µM | [17] > 100 µM | [18] > 100 µM | [19] > 100 µM

Clc1ccc(Nc2nc(Cl)c3nc[nH]c3n2)cc1Cl
inactive: [1] 15.8 µM | [2] 18.4 µM | [3] 15.9 µM | [4] 18.2 µM | [5] 13.4 µM | [6] 21.1 µM | [7] 39.8 µM | [8] 24 µM | [9] 32.3 µM | [10] 25.4 µM | [11] 19.1 µM | [12] 21 µM | [13] 23.7 µM | [15] 20.1 µM | [16] 18.8 µM | [17] 38 µM | [18] 31.8 µM | [19] 26.9 µM

COC(=O)[C@@H](Cc1ccccc1)N1O[C@]12CCCC[C@@H]2NC(=O)OC(C)(C)C (stereo partly specified)
inactive: [1] 26.1 µM | [2] 41.8 µM | [3] 18.6 µM | [4] 18.3 µM | [6] 19.5 µM | [7] 20.4 µM | [8] 37.5 µM | [9] 22.1 µM | [10] 21.3 µM | [11] 21.9 µM | [12] 25 µM | [13] 55.6 µM | [14] 22.1 µM | [15] 19.5 µM | [16] 30.4 µM | [17] 15.8 µM | [18] 36.4 µM | [19] 14.5 µM

[O-][S+]1SC(=S)C2C=CC=CC21 (stereo unspecified)
inactive: [1] > 100 µM | [2] 93.1 µM | [4] 45.3 µM | [5] 34.7 µM | [6] > 100 µM | [7] 40.8 µM | [8] > 100 µM | [9] 95.9 µM | [10] > 100 µM | [11] > 100 µM | [12] > 100 µM | [13] 88.9 µM | [14] > 100 µM | [15] 29.4 µM | [16] 74 µM | [17] > 100 µM | [18] 75.5 µM | [19] 36.8 µM

CCOP(=O)(OCC)C(N)Cc1ccc(OC)c(OC)c1 (stereo unspecified)
inactive: [1] > 100 µM | [2] > 100 µM | [4] > 100 µM | [6] > 100 µM | [7] > 100 µM | [8] > 100 µM | [9] > 100 µM | [10] > 100 µM | [11] > 100 µM | [12] > 100 µM | [13] > 100 µM | [14] > 100 µM | [15] > 100 µM | [16] > 100 µM | [17] > 100 µM | [18] > 100 µM | [19] > 100 µM

COc1ccc(/C=C2/S/C(=N\c3ccccc3)N(NC(=O)Cc3ccccc3)C2=O)cc1
inactive: [1] > 100 µM | [2] > 100 µM | [3] > 100 µM | [4] > 100 µM | [6] > 100 µM | [7] > 100 µM | [8] > 100 µM | [10] > 100 µM | [11] > 100 µM | [12] > 100 µM | [13] > 100 µM | [14] > 100 µM | [15] > 100 µM | [16] > 100 µM | [17] > 100 µM | [18] > 100 µM | [19] 92.3 µM

CCOC(=O)c1sc2nc1CSc1sc(=S)sc1SCc1nc(sc1C(=O)OCC)-c1nc(c(C(=O)OCC)s1)CSc1sc(=S)sc1SCc1nc-2sc1C(=O)OCC
inactive: [1] > 10 µM | [3] > 10 µM | [4] > 10 µM | [5] > 10 µM | [6] > 10 µM | [7] > 10 µM | [8] > 10 µM | [9] > 10 µM | [10] > 10 µM | [11] > 10 µM | [12] > 10 µM | [13] > 10 µM | [14] > 10 µM | [15] > 10 µM | [16] > 10 µM | [17] > 10 µM | [18] > 10 µM | [19] > 10 µM

O=C1C=C(N2CCCC2)C(=O)c2c(O)ccc(O)c21
inactive: [1] > 10 µM | [2] > 10 µM | [3] > 10 µM | [4] > 10 µM | [5] > 10 µM | [6] > 10 µM | [7] > 10 µM | [8] 2.37 µM | [9] 3.93 µM | [11] > 10 µM | [12] > 10 µM | [13] > 10 µM | [14] > 10 µM | [15] 4.6 µM | [16] > 10 µM | [17] > 10 µM | [18] > 10 µM | [19] > 10 µM

FC(F)(F)c1ccccc1C1SCC2=Nc3ccccc3CN21 (stereo unspecified)
inactive: [1] 11.9 µM | [2] 17.1 µM | [3] 11.1 µM | [4] 16.4 µM | [5] 15.1 µM | [6] 23.5 µM | [7] 29.5 µM | [8] 21.8 µM | [10] 11.9 µM | [12] 10.2 µM | [13] 13.1 µM | [14] 19.3 µM | [15] 14.7 µM | [16] 14 µM | [17] 32.4 µM | [18] 15.9 µM | [19] 11.8 µM
